Earlier results as cited in patent US20040185057A1, “Therapeutical vaccination” (priority 2001, published 2004).
Where two headings read alike, the source gives them in different places.

Legend:
[1] = tested on: HLA-A2 super type MHC class-I molecule, allele A*6802; conditions: HLA-A2 allele A*6802; read-out: Binding capacity, IC50

In the case of LLQLTVWGI, the IC50 [1] is given as 645 nM.

For LTFGWCFKL, the IC50 [1] is given as 5.6 nM.

For `CC(=O)O[C@@H]1[C@H](O[C@@H]2O[C@@H](CO)[C@H](O)[C@H]2O)[C@@H](O[C@@H]2O[C@@H](C)[C@H](O[C@@H]3OC[C@@H](O)[C@H](O)[C@H]3O)[C@@H](O)[C@H]2O)[C@H](OC(=O)[C@]23CCC(C)(C)C[C@H]2C2=CC[C@@H]4[C@@]5(C)CC[C@H](O[C@@H]6O[C@H](C(=O)O)[C@@H](O)[C@H](O[C@@H]7OC[C@@H](O)[C@H](O)[C@H]7O)[C@H]6O[C@@H]6O[C@H](CO)[C@H](O)[C@H](O)[C@H]6O)[C@@](C)(C=O)[C@H]5CC[C@@]4(C)[C@]2(C)CC3)O[C@@H]1C` [Squarroside A], the immunomodulating effect (concentrations in the pg range) is given as “stimulant effect” and the immunomodulating effect (concentrations in the μg range) is given as “suppressive effect”.

In the case of AIIRILQQL, the IC50 [1] is given as 548 nM.

For SLLNATDIAV, the IC50 [1] is given as 5480 nM.

For MASDFNLPPV, the IC50 [1] is given as 18.2 nM.

For RILQQLLFI, the IC50 [1] is listed as 1820 nM.

In the case of KMIGGIGGFI, the IC50 [1] is listed as 3330 nM.

For LTFGWCFKLV, the IC50 [1] is listed as 6.2 nM.

In the case of LVGPTPVNI, the IC50 [1] is given as 67.8 nM.

In the case of MTNNPPIPV, the IC50 [1] is given as 12.1 nM.
